Results taken from PMC7822874, “Chemoprotective antimalarials identified through quantitative high-throughput screening of Plasmodium blood and liver stage parasites” (Scientific Reports, 2021).

How the values were obtained:
[1] = test system: Plasmodium falciparum Dd2 asexual blood stage parasites; assay: microbe, parasite or virus in culture; design: species or system Plasmodium falciparum Dd2 in human erythrocytes; single determination (one 11-point concentration-response curve); details: Plasmodium falciparum, DD2, Erythrocyte, 72 h; read-out: AC50
in vitro [2] = details: human, n = 1
in vitro [3] = details: human, HepG2-A16-CD81EGFP cells, uninfected

Compound	AC50 [1] [µM]	CC50 at 48 h (in vitro [2]; HepG2 cells) [µM]	CC50 at 48 h (in vitro [2]; hepg2) [µM]	viability at 66 h (in vitro [3]) [%]	viability at 48 h, 1 µM (in vitro [3]) [%]	viability at 48 h, 3 µM (in vitro [3]) [%]
COc1ccccc1Nc1c2c(nc3ccc(NC(=O)/C=C/c4cccc(OC)c4OC)cc13)CCCC2 [NCGC00104013-01]	5.96	30.6				
CC1CCN(S(=O)(=O)c2ccc3c(c2)C(=NO)c2cc(S(=O)(=O)N4CCC(C)CC4)ccc2-3)CC1 [MLS000551434-01]	1.68		21.7			
O=S(=O)(Nc1cc2nc3ccccc3nc2n1Cc1ccccc1)c1ccc(Cl)cc1 [MLS002583111-01]	1.19	19.3		103		
CCCCOCc1cc(CN2CCN(c3cccc(Cl)c3)CC2)c(O)c2ncccc12 [NCGC00114972-01]	6.68	17.2				
COc1cc(NC2CCCCC2O)c2nc(-c3ccc(Cl)cc3)ccc2c1 (stereo not drawn) [MLS000766166-01]	5.31	13.7			111	101
c1csc(-c2ccnc(N[C@H]3CO[C@H]4[C@@H]3OC[C@@H]4NCC3CCCCC3)n2)c1 [NCGC00395181-01]	12.2	49.8				
Cc1cc(O)c(-c2cc(C(=O)Nc3ccc(S(=O)(=O)N4CCOCC4)cc3)[nH]n2)cc1C [MLS000042703-01]	1.68	27.3				
CCOC(=O)c1c(C)[nH]c2c1-c1ccccc1C(=O)C2=O [MLS000701140-01]	2.37	10.9				
Cc1sc(NC(=O)c2ccco2)c(C(c2cccnc2)N2CCC(C)CC2)c1C (stereo not drawn) [MLS000536186-01]	5.31	8.62				
c1ccc(-c2nc(NCc3ccco3)c3ccccc3n2)nc1 [MLS000040057-01]	5.96	27.3				
Oc1c(C(Nc2ccccn2)c2ccccc2F)ccc2cccnc12 (stereo not drawn) [NCGC00135751-01]	9.44	27.3				
CCOC(=O)c1cnc(-n2nc(C)cc2C)nc1NNc1nc(-c2ccccc2)cc(-c2ccccc2)n1 [MLS000580862-01]	2.11	19.3				
CCCC(=O)NC(c1ccccc1)c1ccc2cccnc2c1O (stereo not drawn) [MLS001204078-01]	6.68	12.2				
COc1ccccc1CNC[C@@H]1C=C(C)[C@H](Cc2nc3cccc(C)c3[nH]2)C[C@H]1C(C)C [NCGC00392078-01]	9.68	44.4				
O=C1C=CC(Br)=CC1=CNNC(=O)c1ccncc1 [MLS000778139-01]	9.44	12.2				
COc1ccc(/C=N/Nc2cc(C)nc(-n3nc(C)cc3C)n2)c(OC)c1 [MLS000589396-01]	5.31	24.3				
CCOC(=O)c1ccc(Nc2nc3nonc3nc2Nc2cccc(C)c2C)cc1 [NCGC00117662-01]	8.41	10.9				

Compound	AC50 [1] [µM]	CC50 at 48 h (in vitro [2]; HepG2 cells) [µM]	CC50 at 48 h (in vitro [2]; hepg2) [µM]	viability at 66 h (in vitro [3]) [%]	viability at 48 h, 1 µM (in vitro [3]) [%]	viability at 48 h, 3 µM (in vitro [3]) [%]
Cc1nn(-c2ccc(C(C)C)cc2)c(C)c1[C@@H]1C=C[C@@H](NCc2ccccc2)C1 [NCGC00392636-01]	21.7	44.4				
Cc1ccc(NCC(=O)Nc2cccc(F)c2)cc1S(=O)(=O)N1CCCCCC1 [MLS001128515-01]		27.3			93	83
COc1cnc(-c2ccccn2)nc1Sc1ccc(Cl)cc1 [MLS000325700-01]	5.96	24.3				
O=C(/C(=C/c1ccc(Cl)cc1)c1nc2ccccc2[nH]1)c1cccs1 [MLS000565128-01]	2.11	24.3				
c1ccc(CCNc2nc(-c3ccccn3)cs2)cc1 [MLS000708031-01]	7.5	21.7				
CC(C)OCc1cc(CN2CCN(c3cccc(C(F)(F)F)c3)CC2)c(O)c2ncccc12 [NCGC00114970-01]	6.68	10.9				
CCCC(=O)NC(c1ccc(C(C)C)cc1)c1ccc2cccnc2c1O (stereo not drawn) [MLS001211083-01]	13.3	12.2				
FC(F)(F)c1cccc(Nc2nc3nonc3nc2Nc2ccc(Cl)cc2)c1 [NCGC00100377-01]	0.75	3.85				
CCOCc1cc(CN2CCN(c3ccccc3OC)CC2)c(O)c2ncccc12 [NCGC00114940-01]	5.96	9.68				
COc1ccc(C2C=C(c3ccc(F)cc3)Nc3nc(-c4ccc(Cl)cc4)nn32)cc1 (stereo not drawn) [NCGC00100513-01]	0.75	27.3				
O=C(Oc1c(CN2CCOCC2)cc(Cl)c2cccnc12)c1ccccc1Br [MLS000770987-01]	7.5	19.3				
Nc1nc(-c2ccccn2)nc(N)c1Cc1ccc(Cl)cc1Cl [MLS000691892-01]	7.5	13.7				
N=c1ccn(CC(=O)c2ccc(-c3ccccc3)cc2)cc1 [MLS000698051-01]	0.944	24.3				
CCN(CC)[S+](=O)([O-])c1ccc(NC(=O)CCc2c(C)nc3cc(-c4ccc(Cl)cc4)nn3c2C)cc1 [NCGC00110055-01]	4.73	27.3				
CCCOC(=O)c1[nH]c2c(c1C)C(=O)CC(c1cc(OC)c(OC)c(OC)c1)C2 (stereo not drawn) [MLS000116504-01]	6.68	21.7				
O=C(Nc1cc(C(F)(F)F)cc(C(F)(F)F)c1)Nc1cnn(-c2ccc([N+](=O)[O-])cc2)c1C(F)(F)F [MLS000851511-01]	6.68	10.9				
COc1ccccc1N1CCN(C[C@@H]2C=C(C)[C@H](Cc3nnc(-c4cncn4C)o3)C[C@H]2C(C)C)CC1 [NCGC00392622-01]	10.6	24.3				
